“And” between values parts separate entries of the source, which are not always exact repeats. Equal entries are not always repeated. Structures can show the parent of a compound that is named as a salt.
Key:
human RORγt LBD = target: T1, human RORγt LBD (Homo sapiens, UniProt P51449); assay: RORγt reporter assay (GAL4-RORγt LBD luciferase in HEK293T cells); format: cell-based; settings: for IC50: 24 hours compound treatment; for inhibition at 6 µM: HEK-293T, read-out: RORγt reporter Assay, % inhibition @ 6 μM, HEK293T cells, 6 μM compound
T1 construct: expressed in transfected cells
T1 sequence (P51449 258-518): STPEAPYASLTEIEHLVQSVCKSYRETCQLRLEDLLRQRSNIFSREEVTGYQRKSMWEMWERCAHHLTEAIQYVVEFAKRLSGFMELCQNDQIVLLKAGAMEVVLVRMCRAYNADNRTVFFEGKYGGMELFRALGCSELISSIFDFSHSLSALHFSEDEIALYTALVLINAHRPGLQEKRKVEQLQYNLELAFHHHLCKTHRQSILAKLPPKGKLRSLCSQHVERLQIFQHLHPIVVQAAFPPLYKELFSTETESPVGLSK
Outline: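 HEK293T cells transiently co-transfected with pBIND (GAL4 DBD fused to wild-type human RORγt LBD, plus SV40-driven renilla luciferase) and pGL4.31 GAL4-responsive firefly luciferase reporter. Plated in phenol-red-free DMEM with 5% lipid-reduced FCS and treated with compound for 24 h. Firefly/renilla luminescence ratio plotted against compound concentration.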

[1] = tested on: IL-17 production by CD4 T cells; assay: Human Th17 assay (IL-17 production by CD4 T cells under Th17 differentiation conditions); format: cell-based; settings: IL-17 in supernatant after 3 days
Protocol: The human Th17 assay tests the effect of RORγt modulatory compounds on IL-17 production by CD4 T cells under conditions which favor Th17 differentiation. Total CD4^+ T cells were isolated from the peripheral blood mononuclear cells (PBMC) of healthy donors using a CD4^+ T cell isolation kit II, following the manufacturer's instructions (Miltenyi Biotec). […] 50 μL of compound at titrated concentrations in DMSO were added into each well at final DMSO concentration at 0.2%. Cells were incubated for 1 hour, then 50 μL of Th17 cell differentiation medium was added to each well. The final concentrations of antibodies and cytokines (R&D Systems) in differentiation medium were: 3×10^6/mL anti-CD3/CD28 beads (prepared using human T cell activation/expansion kit, Miltenyi Biotec), 10 μg/mL anti-IL4, 10 μg/mL anti-IFNγ, 10 ng/mL IL113, 10 ng/mL IL23, 50 ng/mL IL6, 3 ng/mL TGFβ and 20 U/mL IL2. Cells were cultured at 37° C. and 5% CO2 for 3 days. Supernatants were collected and the accumulated IL-17 in culture was measured by using MULTI-SPOT® Cytokine Plate following manufacture's instruction (Meso Scale Discovery). The plate was read using Sector Imager 6000, and IL-17 concentration was extrapolated from the standard curve. The IC50s were determined by GraphPad.

[2] = target: T2, human RORγt ligand binding domain (RORγt LBD) (Homo sapiens, UniProt P51449); assay: RORγt ThermoFluor assay (thermal shift, ligand binding affinity); settings: estimated from concentration response of thermal shift
T2 construct: His-tag (N); TurboTEV protease cleavage site (ENLYFQG) (N); made in house; host or cells: E. coli (pHIS1, modified pET vector)
T2 sequence (P51449 with tags, fused parts or gaps): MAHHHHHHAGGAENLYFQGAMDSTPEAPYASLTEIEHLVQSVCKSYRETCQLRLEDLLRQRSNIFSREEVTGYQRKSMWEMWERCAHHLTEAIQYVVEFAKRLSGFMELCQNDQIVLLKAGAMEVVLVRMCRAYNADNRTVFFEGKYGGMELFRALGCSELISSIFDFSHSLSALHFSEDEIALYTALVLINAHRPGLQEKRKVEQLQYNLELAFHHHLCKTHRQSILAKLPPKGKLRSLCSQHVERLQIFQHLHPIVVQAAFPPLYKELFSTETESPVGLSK
Outline: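 Thermal shift of 0.065 mg/mL RORγt with 60 μM 1,8-ANS in 100 mM Hepes pH 7.0, 10 mM NaCl, 2.5 mM GSH, 0.002% Tween-20. Compounds in 1:2 series from 10 mM DMSO stock. Dye fluorescence (500 nm emission) tracked versus temperature; ΔTm used to derive KD.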

Row | IC50 (human RORγt LBD; HEK293T cells) | inhibition at 6 µM (human RORγt LBD) [%] | IC50 [1] [nM] | Kd [2] [nM] | RORγt reporter Assay, % inhibition @ 6 μM (human RORγt LBD; HEK293T cells, 6 μM compound, 6 µM) [%] | IC50 ([1]; Homo sapiens, CD4+ T, 72 h) [nM] | SMILES
1 | 150 nM | 97 | – | 39 | – | 360 | COc1cccc(C(O)(c2cccnc2)c2ccc3nc(Cl)c(-c4ccccc4)c(Cl)c3c2)c1 (centres unmarked) [Example 54, (2,4-Dichloro-3-phenylquinolin-6-yl)(3-methoxyphenyl)pyridin-3-ylmethanol]
2 | 290 nM | 98 | – | 2000 | – | 1600 | CN(C)c1nc2ccc(C(O)(c3ccccn3)c3cncn3C)cc2c(Cl)c1-c1ccccc1 (centres unmarked) [Example 36, [4-Chloro-2-(dimethylamino)-3-phenylquinolin-6-yl](1-methyl-1H-imidazol-5-yl)pyridin-2-ylmethanol•TFA]
3 | 110 nM and < 50 nM | 98 | – | 37 | – | 270 | CN(C)c1nc2ccc(C(O)(c3ccc(F)cc3)c3cccnc3)cc2c(Cl)c1-c1ccccc1 (centres unmarked) [Example 38, [4-Chloro-2-(dimethylamino)-3-phenylquinolin-6-yl](4-fluorophenyl)pyridin-3-ylmethanol•TFA]
4 | 350 nM | 97 | – | 770 | – | 1200 | OC(c1ccc(Cl)cc1)(c1cccnc1)c1ccc2nc(-c3cncnc3)c(-c3ccccc3)c(Cl)c2c1 (centres unmarked) [Example 152, (4-Chloro-3-phenyl-2-(pyrimidin-5-yl)quinolin-6-yl)(4-chlorophenyl)(pyridin-3-yl)methanol]
5 | 220 nM | 100 | – | 120 | – | 920 | OC(c1ccc(Cl)cc1)(c1cncnc1)c1ccc2nc(Cl)c(-c3ccccc3)c(Cl)c2c1 (centres unmarked) [Example 124, (4-Chlorophenyl)(2,4-dichloro-3-phenylquinolin-6-yl)(pyrimidin-5-yl)methanol]
6 | 220 nM | 104 | – | 75 | – | 440 | OC(c1ccc(F)cc1)(c1cccnc1)c1ccc2nc(Cl)c(-c3ccccc3)c(Cl)c2c1 (centres unmarked) [Example 22, (2,4-Dichloro-3-phenylquinolin-6-yl)(4-fluorophenyl)pyridin-3-ylmethanol]
7 | 47 nM and < 50 nM | 100 | – | 18 | – | 56 | CN(C)c1nc2ccc(C(O)(c3cccnc3)c3cccnc3)cc2c(Cl)c1-c1ccccc1 [Example 40, [4-Chloro-2-(dimethylamino)-3-phenylquinolin-6-yl](dipyridin-3-yl)methanol•TFA]
8 | 190 nM | 91 | – | 200 | – | ~1000 | CN(C)c1nc2ccc(C(O)(c3ccncc3)c3ccncc3)cc2c(Cl)c1-c1ccccc1 [Example 37, [4-Chloro-2-(dimethylamino)-3-phenylquinolin-6-yl](dipyridin-4-yl)methanol•TFA]
9 | 86 nM | 101 | – | 1800 | – | 250 | CCN(CC)c1nc2ccc(C(O)(c3cccnc3)c3cccc(Cl)c3)cc2c(C#N)c1-c1ccccc1 (centres unmarked) [Example 113, 6-[(3-Chlorophenyl)(hydroxy)pyridin-3-ylmethyl]-2-(diethylamino)-3-phenylquinoline-4-carbonitrile•TFA]

The remaining lines, values behind:

Row | SMILES | IC50 (human RORγt LBD; HEK293T cells) | inhibition at 6 µM (human RORγt LBD) [%] | IC50 [1] [nM] | Kd [2] [nM] | RORγt reporter Assay, % inhibition @ 6 μM (human RORγt LBD; HEK293T cells, 6 μM compound, 6 µM) [%] | IC50 ([1]; Homo sapiens, CD4+ T, 72 h) [nM]
10 | COc1nc2c(C)cc(C(O)(c3ccc(C(F)(F)F)nc3)c3cncn3C)cc2c(Cl)c1-c1cccc(F)c1 (single isomer, unassigned) [Example 177b, (4-Chloro-3-(3-fluorophenyl)-2-methoxy-8-methylquinolin-6-yl)(1-methyl-1H-imidazol-5-yl)(6-(trifluoromethyl)pyridin-3-yl)methanol] | 400 nM | 83 | 200 | 22 | – | –
11 | COc1nc2c(C)cc(C(O)(c3ccc(F)cc3)c3cncn3C)cc2c(Cl)c1-c1cccc(F)c1 (single isomer, unassigned) [Example 178c, (4-Chloro-3-(3-fluorophenyl)-2-methoxy-8-methylquinolin-6-yl)(4-fluorophenyl)(1-methyl-1H-imidazol-5-yl)methanol] | 35 nM | – | – | 29 | 96 | 45
12 | Cn1cncc1C(O)(c1ccnc(Cl)c1)c1ccc2nc(Cl)c(-c3ccccc3)c(Cl)c2c1 (centres unmarked) [Example 66, (2-Chloropyridin-4-yl)(2,4-dichloro-3-phenylquinolin-6-yl)(1-methyl-1H-imidazol-5-yl)methanol•TFA] | 10 nM | 105 | – | 1.7 | – | 59
13 | Cn1cncc1C(O)(c1ccncc1)c1ccc2nc(Cl)c(-c3ccccc3)c(N3CCC(O)CC3)c2c1 (centres unmarked) [Example 73, 1-{2-Chloro-6-[hydroxy(1-methyl-1H-imidazol-5-yl)pyridin-4-ylmethyl]-3-phenylquinolin-4-yl}piperidin-4-ol•TFA] | 360 nM | 88 | – | 18 | – | 1200
14 | COc1cccc(C(O)(c2ccc(Cl)nc2)c2ccc3nc(Cl)c(-c4ccccc4)c(Cl)c3c2)c1 (centres unmarked) [Example 65, (6-Chloropyridin-3-yl)(2,4-dichloro-3-phenylquinolin-6-yl)(3-methoxyphenyl)methanol] | 160 nM | 103 | – | 200 | – | 190
15 | CCN(CC)c1nc2ccc(C(O)(c3ccncc3)c3cncn3C)cc2c(OC)c1-c1ccccc1 (centres unmarked) [Example 105, [2-(Diethylamino)-4-methoxy-3-phenylquinolin-6-yl](1-methyl-1H-imidazol-5-yl)pyridin-4-ylmethanol•TFA] | 150 nM | 101 | – | 39 | – | 190
16 | OC(c1ccc(Cl)nc1)(c1cccc(F)c1)c1ccc2nc(Cl)c(-c3ccccc3)c(Cl)c2c1 (centres unmarked) [Example 57, (6-Chloropyridin-3-yl)(2,4-dichloro-3-phenylquinolin-6-yl)(3-fluorophenyl)methanol] | 160 nM | 90 | – | 55 | – | 280
17 | Cc1cc(C(O)(c2cc(C)c3nc(Cl)c(-c4ccccc4)c(Cl)c3c2)c2cncn2C)ccn1 (centres unmarked) [Example 159, (2,4-Dichloro-8-methyl-3-phenylquinolin-6-yl)(1-methyl-1H-imidazol-5-yl)(2-methylpyridin-4-yl)methanol•TFA] | 17 nM | 93 | – | 1.2 | – | 75
18 | Cc1cc(C(O)(c2ccc(Cl)cc2)c2ccc3nc(N(C)C)c(-c4ccccc4)c(Cl)c3c2)on1 (centres unmarked) [Example 134, (4-Chloro-2-(dimethylamino)-3-phenylquinolin-6-yl)(4-chlorophenyl)(3-methylisoxazol-5-yl)methanol •TFA] | 520 nM | 96 | – | 290 | – | 1100
19 | Cc1ncc(C(O)(c2ccc(Cl)cc2)c2ccc3nc(C#N)c(-c4ccccc4)c(Cl)c3c2)n1C (centres unmarked) [Example 139, 4-Chloro-6-((4-chlorophenyl)(1,2-dimethyl-1H-imidazol-5-yl)(hydroxy)methyl)-3-phenylquinoline-2-carbonitrile•TFA] | 310 nM | 102 | – | 61 | – | 350
20 | CC(C)Oc1nc2ccc(C(O)(c3ccncc3)c3cncn3C)cc2c(Cl)c1-c1ccccc1 (centres unmarked) [Example 89, [4-Chloro-2-(1-methylethoxy)-3-phenylquinolin-6-yl](1-methyl-1H-imidazol-5-yl)pyridin-4-ylmethanol•TFA] | 160 nM | 99 | – | 34 | – | 300
